Patent publication US7304129B2 (Imperial Innovations Limited, priority 2000, dated 2007)
Several values for one entry are separate records, joined by “and”; a condition that tells them apart may be missing. Equal values may be shown once. Entries after “also recorded” stand apart in the source; their conditions may differ. No end group written: not given here.

Assays:
[1] = system: rat cerebellar granule neurons cultured on monolayers of NIH 3T3 fibroblasts; assay: in vitro neurite outgrowth co-culture assay (axon regeneration); format: cell-based; settings: for stimulation of neurite outgrowth (in words): agent included in coculture medium, 16 hour culture; for peptide concentration giving maximal effects in neurite outgrowth assay: rat cerebellar neurons on 3T3 monolayer, 16 hours
Procedure: An example of such an assay is a co-culture assay in which neurons are cultured on top of cellular monolayers for 16 hours, before being fixed and stained with a neuron-specific antibody. The mean length of the longest neurite per cell can then be determined by fluorescence microscopy using an appropriate image analysis programme. The neurons may be, for example, (in this case cerebellar granule cell neurons, hippocampal, dorsal root ganglion, olfactory, motor or dopaminergic neurons. The cellular monolayer is, for example NIH 3T3 fibroblasts.
Monolayers of NIH 3T3 fibroblasts were established by seeding 80,000 cells per well in Lab-Tek 8-chamber slides previously coated sequentially with poly-L-lysine and fibronectin and culturing them overnight in DMEM+10% FCS growth medium.
Cerebellum was dissected from post-natal day 2-4 rat pups and the meninges and extraneous tissue discarded. Cerebellum was chopped into small pieces and trypsinised for 10 minutes at 37° C. Trypsin was neutralised using growth medium and the cells pelletted at 1000×g for 7 minutes. Cerebellar neurons were then resuspended in SATO growth medium containing 2% FCS, counted, and plated on top of the fibroblast monolayer at a density of 1,500 neurons per well. After 16 hours, cocultures were fixed with 4% para-formaldehyde and stained with an anti-GAP43 neuron-specific antibody, which was a gift from Dr Graham Wilkin, Imperial College Department of Biochemistry, London, but any other neuron-specific marker can be used.
The mean neurite length of 150-200 neurons per well was determined using a fluorescent microscope and Zeiss KS300 imaging software.
Peptides A, A(d), B, C, D, E, and F were each incorporated in the SATO medium at a range of concentrations from 0 to 200 μg/ml. Nerve growth factor (NGF) and fibroblast growth factor (FGF2) were used as controls at the same range of concentrations.

NIH 3T3 cells [2] = assay: NIH 3T3 cell survival MTS assay in serum-free DMEM (Example 6); format: cell-based; settings: for survival of NIH3T3 cells in serum-free conditions (in words): FGF2 only at low concentrations; for survival of NIH3T3 cells: low-density cultures
Procedure: NIH 3T3 cells are plated in 96-well plates at a density of 5,500 cells/well in 100 μl DMEM containing 0.5% FCS. After 24 hours, this medium is aspirated from the wells and replaced with 100 μl serum-free DMEM alone, or supplemented with 0.5% FCS (positive control), or a single potential survival factor, with four identical wells set up for each condition. The cells are left for up to seven days at 37 degrees and 8% CO2 before the cell survival is determined using an MTS assay. In this assay 20 μl of MTS substrate is added to each 100 μl well and the plate left in the incubator for up to four hours. Respiring cells produce a coloured reaction product that can be read using a spectrophotometer at 490 nm. […] The mean absorbance at 490 nm+/−SEM is determined for the four identically set up wells. Wells containing a known survival factor such as insulin will contain more living cells after three days than cells cultured in unsupplemented medium.

[3] = system: cerebellar neurones expressing a dominant-negative form of FGF receptors; assay: neurite outgrowth of cerebellar neurones from transgenic mice expressing dominant-negative FGF receptors; format: cell-based; settings: neurons unable to signal through the FGF receptor; listed as Ac-DRVEPYSSTA-amide
NIH 3T3 fibroblasts = assay: survival of 3T3 fibroblasts in serum-free DMEM (MTS and morphologic method, Example 5a); format: cell-based; settings: in the presence of FGF
Procedure: NIH 3T3 fibroblasts were plated in each well of a 96-well microtitre plate at a density of 7,000 cells per well in DMEM containing 3% FCS and left to attach overnight. The following day the growth medium was removed and replaced with 0.1 ml DMEM supplemented with FGF or Peptide A(d) or both, eight wells for each condition. The negative control was DMEM alone (maximal cell death) and the positive control was supplementation with 0.5% FCS (maximal cell survival).
Six days later (seven days from first plating the cells), the relative number of living cells in each well was assessed by adding the mitochondrial substrate MTS, [3-(4,5-dmethylthiazol-2-yl)-5-(3-carboxymethoxyphenyl)-2-(4-sulphophenyl)-2H-tetrazolium, inner salt), for four hours before reading the optical density on a microtitre plate reader at a wavelength of 490 nm. The optical density gives a measure of the number of respiring cells present in each well at the end of the assay period.
In addition to the biochemical assay, survival was assessed qualitatively using a morphologic method in which cells were plated in 8-chamber Lab Tek slides in DbEM alone (negative control), or DMEM supplemented with 0.5 ng/ml FGF2; 0.5% FCS (positive control), or 25-200 μg/ml Peptide A(d). After three days the cells were fixed with 4% paraformaldehyde, permeablised with methanol and stained with TRITC-conjugated falloidin to visualise the cell cytoskeleton.

L6 cell line = assay: survival of L6 cell line lacking FGF receptors; format: cell-based; settings: FGF2 0.1, 1 and 10 ng/ml; Peptide A(d) 100 and 400 μg/ml
Procedure: FIG. 2d compares the effects of DMEM, FCS, FGF2 at 0.1, 1 and 10 ng/ml, insulin at 0.5 and 5 μg/ml, and Peptide A(d) at 100 and 400 μg/ml.

MAP kinase = assay: Western blot for tyrosine phosphorylated MAP kinase in NIH 3T3 cells; format: cell-based; settings: 10 minutes
Procedure: A Western blot (FIG. 2f) was obtained as follows: one million NIH 3T3 cells were serum starved for 24 hours then challenged with the following agents: DMEM, 10% FCS, 0.1 ng/ml FGF2, 1 ng/ml FGF2, 10 ng/ml FGF2, 5 μg/ml insulin, 400 μg/ml peptide 52 for 10 minutes at 37 degrees Celsius before being lysed in sample buffer and band separated by PAGE. Proteins were transferred to PVDF membranes and probed with an antibody that recognises tyrosine phosphorylated MAP kinse (upper panel).

DRG neurons = format: cell-based, rat; settings: 10 ng/ml, 10 days in SATO medium
Procedure: DRG neurons were taken from embryonic day 16 rates and cultured at a density of-10,000 cells/well of a 96-well plate-over 10 days in SATO medium, unsupplemented or supplemented with 10 ng/ml NGF, 10 ng/ml FGF2 or 800 ng/ml Peptide A(d). An OD of 100% reflects the baseline cell survival n the absence of any supplement in the medium.

NIH 3T3 cells [4] = assay: NIH 3T3 survival and morphology, TRITC-conjugated phalloidin staining; format: cell-based; settings: three days
NIH3T3 cells = assay: cell survival/proliferation at two plating densities
Source text: FGF2 is a mitogen for a range of cells, including NIH3T3 cells.

[5] = system: cells in S phase (bromodeoxyuridine incorporation into DNA); assay: bromodeoxyuridine incorporation (entry into S phase) mitogenicity assay; format: cell-based; settings: six hours
Procedure: The mitogenicity of an agent can be determined by testing its ability to stimulate entry of cells into ‘S’ phase in readiness for cell division. This is done by standard methodology and involves incubating cells in the presence of a potential mitogen in DMEM supplemented with bromodeoxyuridine. After six hours the cells are fixed and stained with an antibody recognising bromodeoxyuridine. Cells in S phase can be distinguished by their incorporation of bromodeoxyuridine into DNA.

[6] = system: Oligodendrocyte progenitors (O4 positive); format: cell-based, rat; settings: six days in culture, medium supplemented with insulin
Source text: Oligodendrocyte progenitors (O4 positive) are purified from postnatal day 4 rat cerebral cortex. First a trypsinised preparation of cortical cells is dissociated to single cell suspension and pre-plated to remove unwanted adherent cells such as microglia and macrophages. Oligodendrocyte progenitors express the O4 antigen, and can be purified by panning on petri-dishes coated with anti O4 antibodies. Unbound cells are removed by gentle washing, then O4 positive cells are removed by triturating them off the plate with DMEM containing 1% FCS, through a flame-polished pasteur pipette. O4 positive cells are plated on polyornithine-coated glass coverslips at a density of 500,000 cells per well in minimal growth medium containing insulin or the peptide Ac-DRVEPYSSTA[lys]2[lys] i.e. [{Ac-DRVEPYSSTA}2-K]2-K-OH, Peptide A(d), for six days, before being fixed and stained with the anti O4 antibody. Viable O4 positive cells are counted for each condition

[7] = insulin 0.5 pg/ml, FGF2 0.1 ng/ml, Peptide A(d) 10 ng/ml

Ac-ARSEPYSSTA-amide (Ac-ARSEPYSSTA-NH2)
stimulation of neurite outgrowth (in words) [1]: do not

Ac-ARVEPYSSTA-amide (Ac-ARVEPYSSTA-NH2)
stimulation of neurite outgrowth (in words) [1]: do not

Ac-PYSSTA-NH2
effect on NCAM-stimulated neurite outgrowth ([1]; NCAM-stimulated, low peptide concentrations): able to inhibit NCAM-stimulated neurite outgrowth
stimulation of neurite outgrowth (in words) [1]: unable to stimulate neurite outgrowth

Ac-SIDRVEPYSSTAQ-amide (Ac-SIDRVEPYSSTAQ-NH2) [synthetic 13 amino acid peptide derived from the first fibronectin type III domain of NCAM]
concentration at which neurite length equalled that stimulated by NCAM [1]: 100 µM
stimulation of neurite outgrowth (in words) [1]: dose-dependent increase in neurite outgrowth

Acetyl-DAVEPYSSTA-amide (Ac-DAVEPYSSTA-NH2) [Peptide F]
stimulation of neurite outgrowth (in words) [1]: retain the full ability to stimulate neurite outgrowth

Acetyl-DRSEPYSSTA-amide (Ac-DRSEPYSSTA-NH2) [Peptide E]
stimulation of neurite outgrowth (in words) [1]: retain the full ability to stimulate neurite outgrowth
peptide concentration giving maximal effects in neurite outgrowth assay [1]: 50-100 μg/ml and 50-100 μM

Acetyl-DRVE-amide (Ac-DRVE-NH2) [Peptide B]
stimulation of neurite outgrowth (in words) [1]: could stimulate the response
peptide concentration giving maximal effects in neurite outgrowth assay [1]: 75 μg/ml and 150 μM
survival of NIH3T3 cells in serum-free conditions (in words) (NIH 3T3 cells [2]): able to stimulate cell survival

Acetyl-DRVEPYSSTA-amide (Ac-DRVEPYSSTA-NH2) [Peptide A]
stimulation of neurite outgrowth (in words) [1]: full activity was retained
effect on neurite outgrowth stimulated by FGF2 ([1]; peptide at low concentration (25 μM), listed as Ac-DRVEPYSSTA-amide): inhibits neurite outgrowth stimulated by FGF2
peptide concentration giving maximal effects in neurite outgrowth assay [1]: 100-200 μg/ml and 100-200 μM
neurite extension in response to the peptide [3]: unable to extend neurites; also recorded: not able to extend neurites

Acetyl-EGME-amide [Peptide C]
stimulation of neurite outgrowth (in words) [1]: stimulates neurite outgrowth to the same extent as Ac-DRVE-amide
peptide concentration giving maximal effects in neurite outgrowth assay [1]: 38 μg/ml and 75 μM
survival of NIH3T3 cells in serum-free conditions (in words) (NIH 3T3 cells [2]): able to stimulate cell survival

Acetyl-EGMEGM-amide (Ac-EGMEGM-NH2) [Peptide D]
stimulation of neurite outgrowth (in words) [1]: equally active
peptide concentration giving maximal effects in neurite outgrowth assay [1]: 100 µM

FGF2: fibroblast growth factor (FGF2)
stimulation of neurite outgrowth (in words) [1]: approximately doubles; also recorded: stimulates neurite outgrowth in this assay with a biphasic dose-response curve
cells remaining compared with the peptide (NIH 3T3 fibroblasts): far fewer cells remaining
survival of NIH3T3 cells (NIH 3T3 cells [2]; FGF2 1 ng/ml): ineffective
survival of NIH3T3 cells (NIH 3T3 cells [2]; FGF2 10 ng/ml, three days): stimulates apoptosis
survival of NIH3T3 cells in serum-free conditions (in words) (NIH 3T3 cells [2]): stimulate dose-dependent survival
survival of L6 cell line (L6 cell line): unable to stimulate the survival
MAP kinase activation (MAP kinase; FGF2 0.1 ng/ml): did not; also recorded: do not
MAP kinase activation (MAP kinase; FGF2 1 or 10 ng/ml): resulted in MAP kinase activation; also recorded: stimulate MAP kinase activation
increase in DRG neuron survival over unsupplemented baseline (DRG neurons): 73%
cell survival / morphology (NIH 3T3 cells [4]; FGF2 1 and 10 ng/ml): reduced in number, and appear apoptotic
cell survival / morphology (NIH 3T3 cells [4]; [7]): stimulate cell survival
effect on cells plated at low density (NIH3T3 cells; 5,500 cells per well, 10 ng/ml FGF2): stimulates apoptosis
mitogenicity (entry into S phase) ([5]; FGF2 0.1 ng/ml): unable to stimulate entry into S phase
mitogenicity (entry into S phase) ([5]; FGF2 10 ng/ml): mitogenicity of 10 ng/ml FGF2 can be seen

NGF: Nerve growth factor (NGF)
stimulation of neurite outgrowth (in words) [1]: approximately doubles
increase in DRG neuron survival over unsupplemented baseline (DRG neurons): 121%

[{Ac-ADTRSVSEYP}2-K]2-K-OH (also: branched lysine tetramer: four chains on [K]2-K core, core C-terminus free acid (-OH)) [Ac-ADTRSVSEYP [lys]2[lys], 'scrambled' version of Peptide A(d)]
survival of NIH3T3 cells in serum-free conditions (in words) (NIH 3T3 cells [2]): ineffective

[{Ac-ARSEPYSSTA}2-K]2-K-OH (also: branched lysine tetramer: four chains on [K]2-K core, core C-terminus free acid (-OH)) [Ac-ARSEPYSSTA [lys]2[lys], "mutated" multimeric peptide]
survival of NIH3T3 cells in serum-free conditions (in words) (NIH 3T3 cells [2]): stimulated cell survival, though not as potently as the parent peptide

insulin: known survival factor
survival of NIH3T3 cells in serum-free conditions (in words) (NIH 3T3 cells [2]): stimulate dose-dependent survival
MAP kinase activation (MAP kinase; insulin 5 μg/ml): showed a small activation; also recorded: do not
cell survival / morphology (NIH 3T3 cells [4]; [7]): stimulate cell survival
cells originally plated that survive [6]: 25%
cell proliferation (NIH3T3 cells; 11,000 cells per well, FGF2 10 ng/ml): stimulates cell proliferation

soluble NCAM: soluble NCAM (Neuronal Cell Adhesion Molecule)
stimulation of neurite outgrowth (in words) [1]: approximately doubles
